From PubChem BioAssay (NCI)
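In this assay, cells in 96-well plates receive the compound at five concentrations for 48 hours. Endpoints are linearly interpolated between the surrounding concentrations. TGI denotes the concentration required for complete inhibition of growth.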

Assays:
Assay in all cases: NCI tumour cell line growth inhibition, 48 h
HT29 colon = test system: HT29 colon
HL-60(TB) leukemia = test system: HL-60(TB) leukemia
HCT-116 colon = test system: HCT-116 colon
OVCAR-8 ovarian = test system: OVCAR-8 ovarian
M14 melanoma = test system: M14 melanoma
SF-295 CNS = test system: SF-295 CNS
MOLT-4 leukemia = test system: MOLT-4 leukemia
U251 CNS = test system: U251 CNS
NCI-H23 lung = test system: NCI-H23 lung
SK-OV-3 ovarian = test system: SK-OV-3 ovarian
HCT-15 colon = test system: HCT-15 colon
SN12C renal = test system: SN12C renal
SK-MEL-5 melanoma = test system: SK-MEL-5 melanoma
UACC-62 melanoma = test system: UACC-62 melanoma
HCC-2998 colon = test system: HCC-2998 colon
KM12 colon = test system: KM12 colon
SR leukemia = test system: SR leukemia
SK-MEL-28 melanoma = test system: SK-MEL-28 melanoma
OVCAR-4 ovarian = test system: OVCAR-4 ovarian
SF-539 CNS = test system: SF-539 CNS

Structure (SMILES) | TGI (HT29 colon) [µM] | TGI (HL-60(TB) leukemia) [µM] | TGI (HCT-116 colon) [µM] | TGI (OVCAR-8 ovarian) [µM] | TGI (M14 melanoma) [µM] | TGI (SF-295 CNS) [µM] | TGI (MOLT-4 leukemia) [µM] | TGI (U251 CNS) [µM] | TGI (NCI-H23 lung) [µM] | TGI (SK-OV-3 ovarian) [µM] | TGI (HCT-15 colon) [µM] | TGI (SN12C renal) [µM] | TGI (SK-MEL-5 melanoma) [µM] | TGI (UACC-62 melanoma) [µM] | TGI (HCC-2998 colon) [µM] | TGI (KM12 colon) [µM] | TGI (SR leukemia) [µM] | TGI (SK-MEL-28 melanoma) [µM] | TGI (OVCAR-4 ovarian) [µM] | TGI (SF-539 CNS) [µM]
C/C(=N/NC(=O)c1ccncc1)C(F)(F)F | > 100 | > 100 | > 100 | > 100 | > 100 | > 100 | > 100 | > 100 | > 100 | > 100 | > 100 | > 100 | > 100 | > 100 | > 100 | > 100 | > 100 | > 100 | – | –
O=C(O)c1ccccc1CN1CCCC(C(=O)O)C1 (stereo not given) | > 100 | – | > 100 | > 100 | > 100 | > 100 | > 100 | > 100 | > 100 | > 100 | > 100 | > 100 | > 100 | > 100 | – | > 100 | > 100 | > 100 | > 100 | > 100
CC(C)(C)[Si](C)(C)OCC1OC(n2cnc3c(N)ncnc32)C2OC(=S)OC12 (stereo not given) | > 100 | > 100 | > 100 | > 100 | > 100 | > 100 | 69.3 | 68.2 | 73.3 | 97 | > 100 | > 100 | 36.1 | 77.8 | – | > 100 | > 100 | > 100 | > 100 | –
CCOc1ccc(/C=C2\N=C(c3ccccc3)OC2=O)cc1 | > 100 | > 100 | – | > 100 | > 100 | > 100 | > 100 | > 100 | > 100 | > 100 | > 100 | – | > 100 | > 100 | > 100 | > 100 | > 100 | > 100 | > 100 | > 100
CN1C2CCC1/C(=C/c1cccc3c1OCO3)C(=O)/C2=C\c1cccc2c1OCO2 | > 100 | > 100 | > 100 | > 100 | > 100 | 84.6 | > 100 | 63.4 | > 100 | > 100 | > 100 | > 100 | > 100 | 91.4 | > 100 | > 100 | > 100 | > 100 | – | –
Fc1ccc(Nc2nc(Cl)c3[nH]cnc3n2)cc1Cl | > 100 | > 100 | > 100 | > 100 | > 100 | > 100 | > 100 | > 100 | > 100 | > 100 | > 100 | > 100 | > 100 | > 100 | > 100 | > 100 | > 100 | > 100 | > 100 | > 100
C=C=C[P+](c1ccccc1)(c1ccccc1)c1ccccc1 | – | 23.4 | 15.5 | > 100 | 19.5 | – | 16.2 | 14.3 | – | > 100 | 73.8 | 17.8 | 23.3 | – | > 100 | 28.2 | 60.8 | 77.7 | > 100 | 40.2
CC(=O)CCC#Cc1ccccc1C(=O)C(C)=[N+]=[N-] | > 100 | > 100 | 47.8 | > 100 | > 100 | > 100 | 85.4 | > 100 | > 100 | > 100 | > 100 | > 100 | 33.1 | 38.7 | > 100 | > 100 | – | > 100 | > 100 | > 100
